Literature values, collected in US20200399148A1, “METHOD AND APPARATUS FOR ELECTROCHEMICAL pH CONTROL” (BAR-ILAN UNIVERSITY, priority 2018, published 2020).

Tested on: bacteria
Conditions: relative to hypochlorous acid

Structure (SMILES): OCl [OCl^−, hypochlorite anion]
- bactericidal activity, times less than hypochlorous acid: 80-120 time less
